In assay [1] the target is DNA (cytosine-5)-methyltransferase 1 (Homo sapiens) (UniProt P26358). The assay can be described thus: Selectivity interaction (Methyltransferase screen (radiometric assays, panel of 8 PRMTs, 21 protein lysine methyltransferases, 3 DNA methyltransferases, and one RNA methyltransferase)) EUB0000271b DNMT1.
Assay [2] has as its target T1, Dual specificity mitogen-activated protein kinase kinase 5 (Homo sapiens) (UniProt Q13163).
T1 sequence (whole entry): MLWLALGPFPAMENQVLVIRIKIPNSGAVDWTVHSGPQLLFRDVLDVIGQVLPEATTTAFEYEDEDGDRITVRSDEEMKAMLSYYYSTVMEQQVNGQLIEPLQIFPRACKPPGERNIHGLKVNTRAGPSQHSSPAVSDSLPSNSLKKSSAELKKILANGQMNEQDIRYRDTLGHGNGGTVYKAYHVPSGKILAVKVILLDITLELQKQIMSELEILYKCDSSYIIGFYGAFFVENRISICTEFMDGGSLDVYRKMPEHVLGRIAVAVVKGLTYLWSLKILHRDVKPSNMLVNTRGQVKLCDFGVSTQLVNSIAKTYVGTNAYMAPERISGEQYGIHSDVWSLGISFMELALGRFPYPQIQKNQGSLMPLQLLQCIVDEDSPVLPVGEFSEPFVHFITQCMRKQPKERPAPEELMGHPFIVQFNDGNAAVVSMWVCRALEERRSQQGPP
Briefly: Selectivity interaction (KinomeScan (DiscoverX)) EUB0000666a MAP2K5. The note with it: at 10 µM.

Assay [3] deals with T2, Cyclin-dependent kinase 11A (Homo sapiens) (UniProt Q9UQ88).
T2 sequence (whole entry): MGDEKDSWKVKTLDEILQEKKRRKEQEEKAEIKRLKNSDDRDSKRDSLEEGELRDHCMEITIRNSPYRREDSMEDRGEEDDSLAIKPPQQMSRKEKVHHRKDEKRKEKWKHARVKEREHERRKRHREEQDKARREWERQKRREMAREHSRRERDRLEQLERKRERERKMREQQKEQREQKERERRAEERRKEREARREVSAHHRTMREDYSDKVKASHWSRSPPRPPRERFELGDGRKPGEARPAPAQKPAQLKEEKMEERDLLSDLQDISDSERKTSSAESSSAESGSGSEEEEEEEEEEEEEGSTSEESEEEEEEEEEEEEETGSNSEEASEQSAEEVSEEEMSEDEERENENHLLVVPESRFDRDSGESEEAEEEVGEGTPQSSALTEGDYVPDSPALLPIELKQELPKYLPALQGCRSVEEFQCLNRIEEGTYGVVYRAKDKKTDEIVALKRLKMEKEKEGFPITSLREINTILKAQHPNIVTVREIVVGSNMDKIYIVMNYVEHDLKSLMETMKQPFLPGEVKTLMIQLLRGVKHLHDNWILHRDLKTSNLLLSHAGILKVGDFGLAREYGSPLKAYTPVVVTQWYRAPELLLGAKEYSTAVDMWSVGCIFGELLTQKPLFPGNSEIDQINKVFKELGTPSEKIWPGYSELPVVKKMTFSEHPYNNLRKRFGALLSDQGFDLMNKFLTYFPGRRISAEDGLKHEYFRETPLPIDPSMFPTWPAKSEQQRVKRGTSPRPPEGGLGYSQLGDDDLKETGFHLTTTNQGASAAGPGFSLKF
The assay can be described thus: Selectivity interaction (KinomeScan (DiscoverX)) EUB0000607a CDK11A. The following applies: at 10 µM.

In assay [4] the target is T3, Testis-specific serine/threonine-protein kinase 1 (Homo sapiens) (UniProt Q9BXA7).
T3 sequence (whole entry): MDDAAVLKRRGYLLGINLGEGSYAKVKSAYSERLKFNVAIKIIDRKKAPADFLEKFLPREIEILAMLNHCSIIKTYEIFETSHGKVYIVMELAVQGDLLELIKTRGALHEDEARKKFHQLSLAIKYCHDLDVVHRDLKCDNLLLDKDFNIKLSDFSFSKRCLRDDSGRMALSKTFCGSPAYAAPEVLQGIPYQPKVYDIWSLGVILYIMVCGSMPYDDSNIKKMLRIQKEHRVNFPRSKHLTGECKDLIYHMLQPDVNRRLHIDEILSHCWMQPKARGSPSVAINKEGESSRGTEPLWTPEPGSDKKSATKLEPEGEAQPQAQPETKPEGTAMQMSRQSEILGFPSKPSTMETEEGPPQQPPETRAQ
The assay can be described thus: Selectivity interaction (KinomeScan (DiscoverX)) EUB0000607a TSSK1A. The note with it: at 10 µM.

The target of assay [5] is PAS domain-containing serine/threonine-protein kinase (Homo sapiens) (UniProt Q96RG2). The assay can be described thus: Selectivity interaction (Kinase panel (Invitrogen)) EUB0000639a PASK. The note with it: at 200 nM.
In assay [6] the test system is Leucine-rich repeat serine/threonine-protein kinase 2 (Homo sapiens), Q5S007 [G2019S]. Briefly: (§1) Selectivity interaction (KinomeScan (DiscoverX)) EUB0000229b LRRK2. The following applies: at 1 µM.
Leucine-rich repeat serine/threonine-protein kinase 2 (Homo sapiens), Q5S007 [G2019S], sequence (Q5S007 whole entry G2019S): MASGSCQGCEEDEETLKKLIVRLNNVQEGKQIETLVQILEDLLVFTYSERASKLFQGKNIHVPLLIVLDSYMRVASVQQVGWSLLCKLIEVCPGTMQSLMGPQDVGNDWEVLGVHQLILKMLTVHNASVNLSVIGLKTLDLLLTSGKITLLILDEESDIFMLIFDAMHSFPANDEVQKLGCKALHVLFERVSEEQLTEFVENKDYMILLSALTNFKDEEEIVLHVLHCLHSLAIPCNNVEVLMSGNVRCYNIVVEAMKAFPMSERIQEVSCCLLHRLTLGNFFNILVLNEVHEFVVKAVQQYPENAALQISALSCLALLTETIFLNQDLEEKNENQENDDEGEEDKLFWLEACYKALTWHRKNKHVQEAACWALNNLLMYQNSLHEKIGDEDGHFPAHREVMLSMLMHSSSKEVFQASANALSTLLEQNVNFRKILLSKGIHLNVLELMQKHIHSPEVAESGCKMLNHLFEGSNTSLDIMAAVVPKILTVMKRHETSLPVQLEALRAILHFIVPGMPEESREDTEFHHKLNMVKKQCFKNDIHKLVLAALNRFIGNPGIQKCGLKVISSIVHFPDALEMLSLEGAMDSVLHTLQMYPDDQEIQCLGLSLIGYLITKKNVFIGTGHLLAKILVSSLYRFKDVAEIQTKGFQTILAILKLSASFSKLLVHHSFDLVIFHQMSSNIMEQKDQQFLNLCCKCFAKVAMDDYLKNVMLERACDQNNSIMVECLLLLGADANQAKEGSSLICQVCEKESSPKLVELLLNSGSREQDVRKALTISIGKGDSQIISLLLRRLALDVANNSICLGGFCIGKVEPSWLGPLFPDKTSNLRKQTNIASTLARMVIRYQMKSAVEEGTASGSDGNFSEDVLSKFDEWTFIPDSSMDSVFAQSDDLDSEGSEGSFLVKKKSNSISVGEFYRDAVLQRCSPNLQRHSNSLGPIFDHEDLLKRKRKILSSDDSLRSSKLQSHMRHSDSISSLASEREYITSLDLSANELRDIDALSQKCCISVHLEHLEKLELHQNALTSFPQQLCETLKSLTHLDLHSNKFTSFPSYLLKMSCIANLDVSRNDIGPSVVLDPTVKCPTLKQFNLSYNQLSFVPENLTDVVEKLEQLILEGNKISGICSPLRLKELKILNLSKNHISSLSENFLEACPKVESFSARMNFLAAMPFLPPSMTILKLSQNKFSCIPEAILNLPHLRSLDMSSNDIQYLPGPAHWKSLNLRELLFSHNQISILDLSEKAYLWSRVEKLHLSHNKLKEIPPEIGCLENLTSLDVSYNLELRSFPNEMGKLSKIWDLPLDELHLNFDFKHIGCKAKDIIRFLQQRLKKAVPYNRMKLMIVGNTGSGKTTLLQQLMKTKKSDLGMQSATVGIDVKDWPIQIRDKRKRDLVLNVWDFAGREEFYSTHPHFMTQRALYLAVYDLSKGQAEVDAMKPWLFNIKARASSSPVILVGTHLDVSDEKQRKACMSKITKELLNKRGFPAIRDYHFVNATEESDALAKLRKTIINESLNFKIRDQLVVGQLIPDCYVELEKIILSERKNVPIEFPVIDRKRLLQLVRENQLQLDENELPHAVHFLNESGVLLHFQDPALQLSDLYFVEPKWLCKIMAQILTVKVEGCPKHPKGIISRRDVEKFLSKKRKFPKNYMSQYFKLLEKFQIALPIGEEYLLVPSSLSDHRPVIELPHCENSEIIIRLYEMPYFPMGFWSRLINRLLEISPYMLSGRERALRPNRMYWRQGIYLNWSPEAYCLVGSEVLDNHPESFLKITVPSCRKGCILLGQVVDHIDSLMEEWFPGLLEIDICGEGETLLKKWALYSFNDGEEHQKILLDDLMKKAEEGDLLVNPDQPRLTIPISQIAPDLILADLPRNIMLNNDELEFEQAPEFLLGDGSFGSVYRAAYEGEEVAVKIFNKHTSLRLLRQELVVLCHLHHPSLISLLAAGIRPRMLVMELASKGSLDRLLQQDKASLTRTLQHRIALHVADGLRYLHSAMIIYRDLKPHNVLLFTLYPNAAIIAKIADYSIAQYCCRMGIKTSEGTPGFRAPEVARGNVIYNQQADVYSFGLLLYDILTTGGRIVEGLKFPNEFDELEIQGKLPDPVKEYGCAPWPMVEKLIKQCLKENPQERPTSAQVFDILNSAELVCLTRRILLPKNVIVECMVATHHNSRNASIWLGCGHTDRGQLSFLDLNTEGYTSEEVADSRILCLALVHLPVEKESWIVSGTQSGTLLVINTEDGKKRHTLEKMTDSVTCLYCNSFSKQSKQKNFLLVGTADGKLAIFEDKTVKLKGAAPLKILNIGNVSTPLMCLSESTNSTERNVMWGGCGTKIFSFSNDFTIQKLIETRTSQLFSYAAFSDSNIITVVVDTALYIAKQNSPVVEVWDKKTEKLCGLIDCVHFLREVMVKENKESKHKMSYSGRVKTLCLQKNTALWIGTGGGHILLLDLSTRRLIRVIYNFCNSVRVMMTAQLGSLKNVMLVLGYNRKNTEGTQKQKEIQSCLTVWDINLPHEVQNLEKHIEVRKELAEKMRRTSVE
Assay [7] has as its target Leucine-rich repeat serine/threonine-protein kinase 2 (Homo sapiens, UniProt Q5S007). The description is as §1. The following applies: at 10 µM.
Assay [8] deals with T4, Interleukin-1 receptor-associated kinase 4 (Homo sapiens) (UniProt Q9NWZ3).
T4 sequence (whole entry): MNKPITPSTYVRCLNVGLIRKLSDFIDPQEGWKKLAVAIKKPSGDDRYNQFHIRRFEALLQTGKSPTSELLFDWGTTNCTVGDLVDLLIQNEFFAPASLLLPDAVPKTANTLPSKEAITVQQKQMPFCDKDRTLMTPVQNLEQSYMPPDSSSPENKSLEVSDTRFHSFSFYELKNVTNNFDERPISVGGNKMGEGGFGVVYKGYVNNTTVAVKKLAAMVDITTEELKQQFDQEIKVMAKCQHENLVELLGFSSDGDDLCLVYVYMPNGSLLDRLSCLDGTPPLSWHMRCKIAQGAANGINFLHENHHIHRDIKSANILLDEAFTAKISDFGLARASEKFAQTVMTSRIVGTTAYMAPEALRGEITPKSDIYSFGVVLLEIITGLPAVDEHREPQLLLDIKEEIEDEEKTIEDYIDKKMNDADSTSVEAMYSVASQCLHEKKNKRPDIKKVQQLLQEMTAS
The assay can be described thus: Selectivity interaction (Kinase panel (literature)) EUB0001199aCl IRAK4. The following applies: at 1 µM.

Assay [9] has as its target Casein kinase I isoform alpha (Homo sapiens, UniProt P48729). Briefly: Selectivity interaction (KinomeScan (DiscoverX)) EUB0000618a CSNK1A1. The following applies: at 10 µM.

The text below walks through data of ChEMBL document CHEMBL5465560, “Selectivity Literature for EUbOPEN Chemogenomic Library” (2024).

DNA (cytosine-5)-methyltransferase 1 (Homo sapiens), sequence (P26358 whole entry): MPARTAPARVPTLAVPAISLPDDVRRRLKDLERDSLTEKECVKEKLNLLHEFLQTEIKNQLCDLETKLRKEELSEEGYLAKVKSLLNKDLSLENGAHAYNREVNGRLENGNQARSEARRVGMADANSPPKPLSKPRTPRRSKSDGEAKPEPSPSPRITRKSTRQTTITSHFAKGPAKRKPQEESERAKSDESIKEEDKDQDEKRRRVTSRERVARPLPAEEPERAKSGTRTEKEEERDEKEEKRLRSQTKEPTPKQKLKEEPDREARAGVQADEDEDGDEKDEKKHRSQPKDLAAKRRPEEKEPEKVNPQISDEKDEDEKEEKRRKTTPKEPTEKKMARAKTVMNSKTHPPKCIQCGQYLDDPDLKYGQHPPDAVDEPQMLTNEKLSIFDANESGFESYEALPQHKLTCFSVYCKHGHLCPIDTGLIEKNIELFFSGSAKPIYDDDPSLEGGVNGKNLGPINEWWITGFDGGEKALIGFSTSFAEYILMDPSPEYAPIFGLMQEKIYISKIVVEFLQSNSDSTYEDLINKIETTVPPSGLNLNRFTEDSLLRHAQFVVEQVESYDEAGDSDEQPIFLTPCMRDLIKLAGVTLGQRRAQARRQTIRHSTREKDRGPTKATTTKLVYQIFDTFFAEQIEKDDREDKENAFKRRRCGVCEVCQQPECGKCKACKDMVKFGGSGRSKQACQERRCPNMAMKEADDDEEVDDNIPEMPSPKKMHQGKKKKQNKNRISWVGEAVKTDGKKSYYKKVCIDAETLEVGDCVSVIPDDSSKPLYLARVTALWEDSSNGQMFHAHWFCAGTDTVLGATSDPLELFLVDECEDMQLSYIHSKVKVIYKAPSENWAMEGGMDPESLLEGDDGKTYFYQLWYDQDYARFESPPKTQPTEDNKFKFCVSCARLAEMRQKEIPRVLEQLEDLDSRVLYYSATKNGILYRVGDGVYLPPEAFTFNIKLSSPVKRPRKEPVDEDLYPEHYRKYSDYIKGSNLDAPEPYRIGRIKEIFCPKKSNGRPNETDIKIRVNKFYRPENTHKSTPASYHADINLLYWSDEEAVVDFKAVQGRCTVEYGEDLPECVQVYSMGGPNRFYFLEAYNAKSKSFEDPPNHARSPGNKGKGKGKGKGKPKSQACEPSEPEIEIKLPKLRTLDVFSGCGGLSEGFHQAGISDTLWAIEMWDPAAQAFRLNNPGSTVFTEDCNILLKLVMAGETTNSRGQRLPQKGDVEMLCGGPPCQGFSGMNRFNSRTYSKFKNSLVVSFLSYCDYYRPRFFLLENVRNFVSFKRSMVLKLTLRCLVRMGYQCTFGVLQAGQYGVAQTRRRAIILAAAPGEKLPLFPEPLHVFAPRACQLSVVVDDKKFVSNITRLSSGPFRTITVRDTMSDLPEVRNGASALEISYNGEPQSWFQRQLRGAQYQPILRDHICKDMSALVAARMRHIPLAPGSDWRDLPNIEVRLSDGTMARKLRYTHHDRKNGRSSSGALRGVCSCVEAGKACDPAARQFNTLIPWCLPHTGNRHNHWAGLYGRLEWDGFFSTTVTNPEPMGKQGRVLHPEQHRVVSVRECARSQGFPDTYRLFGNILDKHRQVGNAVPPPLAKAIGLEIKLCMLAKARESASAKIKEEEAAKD
Casein kinase I isoform alpha, sequence (P48729 2-337 limits assumed): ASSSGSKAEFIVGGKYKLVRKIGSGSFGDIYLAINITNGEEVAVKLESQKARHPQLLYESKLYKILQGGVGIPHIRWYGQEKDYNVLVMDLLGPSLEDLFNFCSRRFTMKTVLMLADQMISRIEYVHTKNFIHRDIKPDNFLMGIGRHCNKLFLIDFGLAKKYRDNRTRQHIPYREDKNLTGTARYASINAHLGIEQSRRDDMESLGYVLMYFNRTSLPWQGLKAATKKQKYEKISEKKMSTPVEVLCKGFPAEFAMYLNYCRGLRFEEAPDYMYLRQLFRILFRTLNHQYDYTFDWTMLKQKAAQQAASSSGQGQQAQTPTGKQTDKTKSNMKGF
Leucine-rich repeat serine/threonine-protein kinase 2, sequence (Q5S007 whole entry): as the sequence (Q5S007 whole entry G2019S) above, with S2019G counted along it

With `Cc1cc(C)cc([C@@H]2c3cc(C)ccc3NC(=O)CN2C(=O)c2ccc(Br)s2)c1`, the values for the % of activity in assay [1] (at 1 µM) and in [1] (at 10 µM) were 98.3% and 97.7%, respectively. In turn, `O=C(NOC[C@H](O)CO)c1ccc(F)c(F)c1Nc1ccc(I)cc1F` yielded a % of control in [2] of 86%. Turning to `CNC(=O)Nc1ccc(-c2nc(N3CC4CCC(C3)O4)c3cnn(C4CCC5(CC4)OCCO5)c3n2)cc1`, the % of control amounted to 97% in [3] and 100% in [4]. For `CC[C@@H]1[C@H](F)C(=O)N[C@@H]1COc1nccc2cc(C(N)=O)c(OC)cc12` [ZIMLOVISERTIB], the % of inhibition in assay [5] was 7.59%. Consider `COc1cc(N(C)c2ccnc3ccc(C(F)(F)F)cc23)cc(OC)c1OC`, for which the % binding in assay [6] and in assay [7] was 100% in each case.

For the compound `CN1Cc2nccc(-c3cn(C)nc3-c3ccc(F)cc3)c2C1=O`, the % of inhibition in assay [8] is -8%.

In assay [9], `O[C@H]1CC[C@H](Nc2ncc3nc(Nc4c(F)cc(F)cc4F)n([C@H]4CCOC4)c3n2)CC1` gave a % of control of 100%.
